In general, MIC refers to the lowest concentration that inhibits growth of the organism. Broadly, the IC50 is the concentration at which inhibition is half-maximal.

MIC, Activity and IC50 data for 9 compounds are collected here from ChEMBL document CHEMBL5236585, “Design, synthesis and antifungal activities of novel triazole derivatives with selenium-containing hydrophobic side chains” (Bioorg Med Chem Lett, 2022).

In one data set the test system is Candida tropicalis. The experiment in a line: Antifungal activity against Candida tropicalis CGMCC 2.3739 assessed as inhibition of fungal growth by microdilution method. It counts as functional. A general note: Broth dilution looks for growth in wells or tubes with falling amounts of substance.
Another data set relates to Aspergillus fumigatus. The data set can be described thus: Antifungal activity against Aspergillus fumigatus CGMCC 3.7795 assessed as inhibition of fungal growth by microdilution method. It counts as functional.
A further data set concerns Pichia kudriavzevii. The data set can be described thus: Antifungal activity against Candida krusei AS 2.1045 assessed as inhibition of fungal growth by microdilution method. It counts as functional.
For data set [1], the system named is Candida albicans. The experiment in a line: Antifungal activity against Candida albicans CPCC 400616 assessed as inhibition of fungal growth by microdilution method. It is filed as functional.
A further data set relates to Candida parapsilosis. The data set can be described thus: Antifungal activity against Candida parapsilosis 22019 assessed as inhibition of fungal growth by microdilution method. It is filed as functional. The note with it: Lodderomyces parapsilosis.
For data set [2], the system named is Candida albicans. The experiment in a line: Antifungal activity against Candida albicans ATCC SC5314 assessed as inhibition of fungal growth by microdilution method. It counts as functional.
The subject of a further data set is Cryptococcus neoformans. The experiment in a line: Antifungal activity against Cryptococcus neoformans CGMCC 2.3161 assessed as inhibition of fungal growth by microdilution method. It is filed as functional.
The next data set deals with Nakaseomyces glabratus. The experiment in a line: Antifungal activity against clinical isolate Candida glabrata assessed as inhibition of fungal growth by microdilution method. It is filed as functional.
Data set [3] addresses T1, Lanosterol 14-alpha demethylase (Candida albicans (strain SC5314 / ATCC MYA-2876) (Yeast), UniProt P10613). The experiment in a line: Inhibition of CYP51 in Candida albicans SC5314 assessed as lanosterol level at 1 ug/ml by GC-MS analysis (reference value: 1.7 %). Set-up: scale not given: the % may be the effect or the level left. The note with it: at 1 µg/mL.
The target in data set [4] is T1, Lanosterol 14-alpha demethylase. The experiment in a line: Inhibition of CYP51 in Candida albicans SC5314 assessed as eburicol level at 4 ug/ml by GC-MS analysis (reference value: 0 %). Details: scale not given: the % may be the effect or the level left. Particulars: at 4 µg/mL.
For data set [5] the target is unchanged. The experiment in a line: Inhibition of CYP51 in Candida albicans SC5314 assessed as obtusifoliol level at 2 ug/ml by GC-MS analysis (reference value: 0 %). Particulars: at 2 µg/mL. Details: scale not given: the % may be the effect or the level left.
The test system of the next data set is HL-60. The data set can be described thus: Cytotoxicity against human HL-60 cells assessed as inhibition of cell growth by MTT assay. It counts as functional, cell-based. (Tetrazolium dyes change colour on reduction, which living cells bring about.)
The target in data set [6] is T1, Lanosterol 14-alpha demethylase. The experiment in a line: Inhibition of CYP51 in Candida albicans SC5314 assessed as obtusifoliol level at 8 ug/ml by GC-MS analysis (reference value: 0 %). Details: scale not given: the % may be the effect or the level left. The note with it: at 8 µg/mL.
Data set [7] shares this target. The data set can be described thus: Inhibition of CYP51 in Candida albicans SC5314 assessed as eburicol level at 1 ug/ml by GC-MS analysis (reference value: 0 %). Details: scale not given: the % may be the effect or the level left. Particulars: at 1 µg/mL.
For data set [8] the target is unchanged. The data set can be described thus: Inhibition of CYP51 in Candida albicans SC5314 assessed as ergosterol level at 2 ug/ml by GC-MS analysis (reference value: 98.3 %). Details: scale not given: the % may be the effect or the level left. Particulars: at 2 µg/mL.
For another data set, the system named is MDA-MB-231. The data set can be described thus: Cytotoxicity against human MDA-MB-231 cells assessed as inhibition of cell growth by MTT assay. It is filed as functional, cell-based.
Data set [9] addresses T1, Lanosterol 14-alpha demethylase. The data set can be described thus: Inhibition of CYP51 in Candida albicans SC5314 assessed as obtusifoliol level at 1 ug/ml by GC-MS analysis (reference value: 0 %). Set-up: scale not given: the % may be the effect or the level left. The note with it: at 1 µg/mL.
Data set [10] shares this target. The experiment in a line: Inhibition of CYP51 in Candida albicans SC5314 assessed as ergosterol level at 4 ug/ml by GC-MS analysis (reference value: 98.3 %). Set-up: scale not given: the % may be the effect or the level left. The note with it: at 4 µg/mL.
Data set [11] has the same target. The experiment in a line: Inhibition of CYP51 in Candida albicans SC5314 assessed as obtusifoliol level at 4 ug/ml by GC-MS analysis (reference value: 0 %). Set-up: scale not given: the % may be the effect or the level left. Particulars: at 4 µg/mL.
Data set [12] has the same target. The data set can be described thus: Inhibition of CYP51 in Candida albicans SC5314 assessed as lanosterol level at 2 ug/ml by GC-MS analysis (reference value: 1.7 %). Details: scale not given: the % may be the effect or the level left. The note with it: at 2 µg/mL.
Data set [13] shares this target. The data set can be described thus: Inhibition of CYP51 in Candida albicans SC5314 assessed as lanosterol level at 4 ug/ml by GC-MS analysis (reference value: 1.7 %). Set-up: scale not given: the % may be the effect or the level left. Particulars: at 4 µg/mL.
Data set [14] shares this target. The data set can be described thus: Inhibition of CYP51 in Candida albicans SC5314 assessed as lanosterol level at 8 ug/ml by GC-MS analysis (reference value: 1.7 %). Set-up: scale not given: the % may be the effect or the level left. The note with it: at 8 µg/mL.
Data set [15] shares this target. The experiment in a line: Inhibition of CYP51 in Candida albicans SC5314 assessed as ergosterol level at 8 ug/ml by GC-MS analysis (reference value: 98.3 %). Details: scale not given: the % may be the effect or the level left. Particulars: at 8 µg/mL.
The target is the same in data set [16]. The experiment in a line: Inhibition of CYP51 in Candida albicans SC5314 assessed as eburicol level at 8 ug/ml by GC-MS analysis (reference value: 0 %). Set-up: scale not given: the % may be the effect or the level left. Particulars: at 8 µg/mL.
Data set [17] has the same target. The experiment in a line: Inhibition of CYP51 in Candida albicans SC5314 assessed as ergosterol level at 1 ug/ml by GC-MS analysis (reference value: 98.3 %). Details: scale not given: the % may be the effect or the level left. Particulars: at 1 µg/mL.
Another data set has as its system PC-3. The data set can be described thus: Cytotoxicity against human PC-3 cells assessed as inhibition of cell growth by MTT assay. It counts as functional, cell-based.
Data set [18] has as its target T1, Lanosterol 14-alpha demethylase. The data set can be described thus: Inhibition of CYP51 in Candida albicans SC5314 assessed as eburicol level at 2 ug/ml by GC-MS analysis (reference value: 0 %). Set-up: scale not given: the % may be the effect or the level left. Particulars: at 2 µg/mL.

T1 sequence (P10613 whole entry): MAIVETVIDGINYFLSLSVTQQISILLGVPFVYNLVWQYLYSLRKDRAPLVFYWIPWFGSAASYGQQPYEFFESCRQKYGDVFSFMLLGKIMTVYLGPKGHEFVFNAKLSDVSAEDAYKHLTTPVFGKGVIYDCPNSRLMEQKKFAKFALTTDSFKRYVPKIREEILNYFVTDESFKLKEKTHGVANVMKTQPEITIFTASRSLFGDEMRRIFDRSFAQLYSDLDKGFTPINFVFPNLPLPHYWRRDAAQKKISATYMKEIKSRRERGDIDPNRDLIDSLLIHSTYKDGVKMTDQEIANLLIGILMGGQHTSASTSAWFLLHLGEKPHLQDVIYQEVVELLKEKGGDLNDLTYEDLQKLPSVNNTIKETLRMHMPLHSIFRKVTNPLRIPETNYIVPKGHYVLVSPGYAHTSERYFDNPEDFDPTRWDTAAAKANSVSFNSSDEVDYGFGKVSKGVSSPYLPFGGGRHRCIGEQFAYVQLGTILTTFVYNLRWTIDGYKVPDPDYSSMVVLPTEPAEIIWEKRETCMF

For `Clc1ccc(COC(Cn2ccnc2)c2ccc(Cl)cc2Cl)c(Cl)c1` (configuration not stated) [MICONAZOLE], the MIC in the data set with Candida tropicalis is 1 µg/mL.
Take `OC(C[Se]Cc1ccc(C(F)(F)F)cc1)(Cn1cncn1)c1ccc(F)cc1F` (configuration not stated): the minimal inhibitory concentration (MIC) worked out at 4 µg/mL in the data set with Aspergillus fumigatus; 2 µg/mL in the data set on Pichia kudriavzevii; 0.5 µg/mL with Candida tropicalis; 0.03 µg/mL in the data set on Candida albicans [1]; 0.25 µg/mL in the data set on Candida parapsilosis; 0.03 µg/mL in the data set on Candida albicans [2]. In addition, the values for the MIC in the data set with Cryptococcus neoformans and in the data set with Nakaseomyces glabratus were 0.5 µg/mL and 4 µg/mL, respectively.
Regarding `OC(Cn1cncn1)(Cn1cncn1)c1ccc(F)cc1F` [FLUCONAZOLE], the Activity is on record as 14.3% in data set [3]; 69.6% in data set [4]; 13.1% in [5]; 14.1% in data set [6]; 67.9% in data set [7]; 2.5% in data set [8]. The Activity in data set [9] is reported as 13.9%; in data set [10] it was 1.5%; in [11], 13.5%; in data set [12], 15.7%; in [13], 15.4%; in data set [14] it was 14.9%. Further, the Activity in data set [15] came out at 1.1%; in data set [16], 69.9%; in data set [17], 3.9%; in data set [18], 68.7%. Moreover, the IC50 amounted to 11.6 µM with HL-60, 19.2 µM with MDA-MB-231 and 16.5 µM in the data set with PC-3. In the data set on Candida tropicalis, the MIC stood at 4 µg/mL.
For `Cc1ccc(C)c([Se]CC(O)(Cn2cncn2)c2ccc(F)cc2F)c1` (configuration not stated), the minimum inhibitory concentration (MIC) in the data set on Aspergillus fumigatus is 2 µg/mL; with Pichia kudriavzevii, 1 µg/mL; in the data set with Candida tropicalis, 0.5 µg/mL; in the data set with Candida albicans [1] it was 1 µg/mL; in the data set on Candida parapsilosis, 0.5 µg/mL; in the data set with Candida albicans [2], 1 µg/mL. Further, the figures for the MIC in the data set with Cryptococcus neoformans and in the data set with Nakaseomyces glabratus were 0.25 µg/mL and 2 µg/mL, respectively.
In the case of `CCc1ccc([Se]CC(O)(Cn2cncn2)c2ccc(F)cc2F)cc1` (configuration not stated), the MIC in the data set with Aspergillus fumigatus was 4 µg/mL; with Pichia kudriavzevii, 2 µg/mL; in the data set on Candida tropicalis it was 2 µg/mL; in the data set on Candida albicans [1], 1 µg/mL; in the data set with Candida parapsilosis it was 0.5 µg/mL; in the data set on Candida albicans [2] it was 0.5 µg/mL. For the same compound, the values for the MIC in the data set with Cryptococcus neoformans and with Nakaseomyces glabratus were 1 µg/mL and 4 µg/mL, respectively.
In the case of `OC(C[Se]Cc1ccccc1Cl)(Cn1cncn1)c1ccc(F)cc1F` (configuration not stated), the MIC was determined as 2 µg/mL in the data set on Aspergillus fumigatus; 0.125 µg/mL with Pichia kudriavzevii; 0.25 µg/mL with Candida tropicalis; 0.125 µg/mL in the data set with Candida albicans [1]; 0.125 µg/mL in the data set with Candida parapsilosis; 0.02 µg/mL with Candida albicans [2]. Further, the minimal inhibitory concentration (MIC) was 0.25 µg/mL in the data set with Cryptococcus neoformans and 0.5 µg/mL in the data set on Nakaseomyces glabratus.
On to `COc1cccc([Se]CC(O)(Cn2cncn2)c2ccc(F)cc2F)c1` (configuration not stated), for which the MIC in the data set with Aspergillus fumigatus was 8 µg/mL; with Pichia kudriavzevii, 2 µg/mL; in the data set on Candida tropicalis it was 2 µg/mL; in the data set on Candida albicans [1] it was 0.5 µg/mL; in the data set with Candida parapsilosis, 0.125 µg/mL; in the data set with Candida albicans [2], 0.02 µg/mL. For the same compound, the figures for the MIC in the data set on Cryptococcus neoformans and in the data set on Nakaseomyces glabratus were 1 µg/mL and 4 µg/mL, respectively.
As to `OC(C[Se]Cc1ccc(F)cc1)(Cn1cncn1)c1ccc(F)cc1F` (configuration not stated), the minimal inhibitory concentration (MIC) came to 2 µg/mL with Aspergillus fumigatus; 1 µg/mL in the data set on Pichia kudriavzevii; 0.5 µg/mL in the data set with Candida tropicalis; 0.06 µg/mL in the data set on Candida albicans [1]; 0.25 µg/mL in the data set on Candida parapsilosis; 0.03 µg/mL in the data set with Candida albicans [2]. For the same compound, the MIC in the data set with Cryptococcus neoformans amounted to 2 µg/mL; in the data set on Nakaseomyces glabratus it was 1 µg/mL.
Take `Cc1cc(C)cc([Se]CC(O)(Cn2cncn2)c2ccc(F)cc2F)c1` (configuration not stated): the MIC turned out to be 8 µg/mL in the data set with Aspergillus fumigatus; 2 µg/mL with Pichia kudriavzevii; 0.06 µg/mL in the data set on Candida tropicalis; 0.06 µg/mL in the data set with Candida albicans [1]; 0.25 µg/mL with Candida parapsilosis; 0.03 µg/mL in the data set on Candida albicans [2]. The figures for the MIC in the data set with Cryptococcus neoformans and with Nakaseomyces glabratus were 0.03 µg/mL and 4 µg/mL, respectively.
